From ChEMBL document CHEMBL1201862, “PubChem BioAssay data set” (2004)
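Values below derive from 48-hour exposures of cells grown in 96-well plates, with endpoints linearly interpolated between the two concentrations bracketing the appropriate inhibition level. At the GI50, growth is halved.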 Activity calls are given as the source filed them. Rule as the data show it: active = GI50 up to about 1.1 µM and inactive = higher.

Assays:
Experiment in all cases: growth of human tumour cells (NCI), 48 h
[1] = test system: OVCAR-5
[2] = test system: SK-MEL-5
[3] = test system: PC-3
[4] = test system: OVCAR-8
[5] = test system: SNB-19
[6] = test system: U-251
[7] = test system: SF-539
[8] = test system: HL-60
[9] = test system: HOP-92
[10] = test system: MCF7
[11] = test system: HOP-62
[12] = test system: SK-MEL-28
[13] = test system: SK-MEL-2
[14] = test system: SNB-75
[15] = test system: DU-145
[16] = test system: Malme-3M
[17] = test system: T47D
[18] = test system: HCC 2998
[19] = test system: RPMI-8226
[20] = test system: IGROV-1
[21] = test system: SF-295
[22] = test system: MOLT-4
[23] = test system: UACC-257
[24] = test system: NCI-H23
[25] = test system: TK-10
[26] = test system: 786-0
[27] = test system: A549
[28] = test system: NCI-H522
[29] = test system: RXF 393
[30] = test system: Hs-578T
[31] = test system: OVCAR-4
[32] = test system: UACC-62
[33] = test system: NCI-H226
[34] = test system: HCT-15
[35] = test system: MDA-MB-435
[36] = test system: UO-31
[37] = test system: NCI-H460
[38] = test system: LOX IMVI
[39] = test system: SW-620
[40] = test system: HT-29
[41] = test system: KM12
[42] = test system: M14
[43] = test system: NCI/ADR-RES
[44] = test system: EKVX
[45] = test system: COLO 205
[46] = test system: SN12C
[47] = test system: ACHN
[48] = test system: MDA-MB-231
[49] = test system: SK-OV-3
[50] = test system: SR
[51] = test system: K562
[52] = test system: MDA-N
[53] = test system: OVCAR-3
[54] = test system: CAKI-1
[55] = test system: BT-549
[56] = test system: SF-268
[57] = test system: HCT-116
[58] = test system: CCRF-CEM

Q: Which GI50 [1] does the source give for `O=C(Nc1ccc2cc3ccccc3cc2c1)c1cc2c(cc1Cl)Sc1nccn1S2(=O)=O` here?
A: The GI50 was 21.7 µM (inactive).

Q: What about the GI50 [2] of the same compound?
A: The GI50 was 7.93 µM (inactive).

Q: And the GI50 [3]?
A: The GI50 was 6.47 µM (inactive).

Q: What about the GI50 [4] of the same compound?
A: Its GI50 is 26.4 µM (inactive).

Q: What about the GI50 [5] of the same compound?
A: The GI50 was 25.1 µM (inactive).

Q: What about the GI50 [6] of the same compound?
A: The GI50 was 5.48 µM (inactive).

Q: And the GI50 [7]?
A: Its GI50 is 7.8 µM (inactive).

Q: And the GI50 [8]?
A: The GI50 was 17.7 µM (inactive).

Q: What about the GI50 [9] of the same compound?
A: The GI50 was 42 µM (inactive).

Q: And the GI50 [10]?
A: Its GI50 is > 100 µM (inactive).

Q: What about the GI50 [11] of the same compound?
A: The GI50 was 59.6 µM (inactive).

Q: And the GI50 [12]?
A: Its GI50 is 19.1 µM (inactive).

Q: And the GI50 [13]?
A: The GI50 was 85.9 µM (inactive).

Q: What about the GI50 [14] of the same compound?
A: Its GI50 is 13.3 µM (inactive).

Q: What about the GI50 [15] of the same compound?
A: The GI50 was 20.6 µM (inactive).

Q: What about the GI50 [16] of the same compound?
A: Its GI50 is 19.5 µM (inactive).

Q: And the GI50 [17]?
A: Its GI50 is 25.2 µM (inactive).

Q: And the GI50 [18]?
A: The GI50 was 6.84 µM (inactive).

Q: What about the GI50 [19] of the same compound?
A: Its GI50 is > 100 µM (inactive).

Q: What about the GI50 [20] of the same compound?
A: Its GI50 is 15.9 µM (inactive).

Q: And the GI50 [21]?
A: Its GI50 is 13.4 µM (inactive).

Q: What about the GI50 [22] of the same compound?
A: The GI50 was 33.4 µM (inactive).

Q: What about the GI50 [23] of the same compound?
A: Its GI50 is 58.3 µM (inactive).

Q: What about the GI50 [24] of the same compound?
A: The GI50 was 46.5 µM (inactive).

Q: And the GI50 [25]?
A: Its GI50 is 16 µM (inactive).

Q: And the GI50 [26]?
A: The GI50 was 4.73 µM (inactive).

Q: What about the GI50 [27] of the same compound?
A: The GI50 was 13.6 µM (inactive).

Q: What about the GI50 [28] of the same compound?
A: Its GI50 is 33.7 µM (inactive).

Q: And the GI50 [29]?
A: Its GI50 is 45.6 µM (inactive).

Q: What about the GI50 [30] of the same compound?
A: Its GI50 is > 100 µM (inactive).

Q: And the GI50 [31]?
A: Its GI50 is 10.3 µM (inactive).

Q: What about the GI50 [32] of the same compound?
A: Its GI50 is 64.9 µM (inactive).

Q: What about the GI50 [33] of the same compound?
A: The GI50 was 82.8 µM (inactive).

Q: And the GI50 [34]?
A: The GI50 was 20.7 µM.

Q: And the GI50 [35]?
A: The GI50 was 28.4 µM (inactive).

Q: And the GI50 [36]?
A: The GI50 was 68.5 µM (inactive).

Q: And the GI50 [37]?
A: The GI50 was 28.7 µM (inactive).

Q: And the GI50 [38]?
A: Its GI50 is 16.8 µM (inactive).

Q: And the GI50 [39]?
A: Its GI50 is 13.9 µM (inactive).

Q: What about the GI50 [40] of the same compound?
A: Its GI50 is 18.9 µM (inactive).

Q: And the GI50 [41]?
A: Its GI50 is 33.7 µM (inactive).

Q: What about the GI50 [42] of the same compound?
A: The GI50 was 42.7 µM (inactive).

Q: What about the GI50 [43] of the same compound?
A: The GI50 was > 100 µM (inactive).

Q: What about the GI50 [44] of the same compound?
A: The GI50 was 35.6 µM (inactive).

Q: What about the GI50 [45] of the same compound?
A: Its GI50 is 87.3 µM (inactive).

Q: What about the GI50 [46] of the same compound?
A: The GI50 was 60.3 µM (inactive).

Q: And the GI50 [47]?
A: The GI50 was 67.1 µM (inactive).

Q: And the GI50 [48]?
A: Its GI50 is 8.97 µM (inactive).

Q: And the GI50 [49]?
A: The GI50 was > 100 µM (inactive).

Q: What about the GI50 [50] of the same compound?
A: The GI50 was 35.2 µM (inactive).

Q: What about the GI50 [51] of the same compound?
A: The GI50 was 10.8 µM (inactive).

Q: And the GI50 [52]?
A: The GI50 was 44.4 µM (inactive).

Q: And the GI50 [53]?
A: Its GI50 is > 100 µM (inactive).

Q: And the GI50 [54]?
A: Its GI50 is > 100 µM (inactive).

Q: What about the GI50 [55] of the same compound?
A: The GI50 was 32.5 µM (inactive).

Q: And the GI50 [56]?
A: The GI50 was 15.3 µM (inactive).

Q: And the GI50 [57]?
A: The GI50 was 3.85 µM (inactive).

Q: `CC(=O)OCC1OC(n2c(C)c(/N=N/c3ccccc3)c(C)c(C#N)c2=S)C(OC(C)=O)C(OC(C)=O)C1OC(C)=O` (stereo not given) was tested. Which GI50 [1] did it give?
A: Its GI50 is 86.9 µM (inactive).

Q: What about the GI50 [2] of the same compound?
A: The GI50 was 34 µM (inactive).

Q: What about the GI50 [3] of the same compound?
A: Its GI50 is > 100 µM (inactive).

Q: What about the GI50 [5] of the same compound?
A: Its GI50 is 24.2 µM (inactive).

Q: And the GI50 [6]?
A: The GI50 was > 10 µM (inactive).

Q: And the GI50 [7]?
A: Its GI50 is 58.7 µM (inactive).

Q: And the GI50 [8]?
A: Its GI50 is > 100 µM (inactive).

Q: And the GI50 [9]?
A: The GI50 was 8.99 µM (inactive).

Q: And the GI50 [10]?
A: The GI50 was > 100 µM (inactive).

Q: What about the GI50 [11] of the same compound?
A: Its GI50 is 14.4 µM (inactive).

Q: What about the GI50 [12] of the same compound?
A: Its GI50 is > 100 µM (inactive).

Q: What about the GI50 [13] of the same compound?
A: The GI50 was 24.9 µM (inactive).

Q: And the GI50 [58]?
A: The GI50 was > 100 µM (inactive).

Q: What about the GI50 [14] of the same compound?
A: Its GI50 is 1.85 µM (inactive).

Q: And the GI50 [15]?
A: Its GI50 is 83.4 µM (inactive).

Q: And the GI50 [16]?
A: Its GI50 is 46.3 µM (inactive).

Q: And the GI50 [17]?
A: Its GI50 is > 100 µM (inactive).

Q: What about the GI50 [18] of the same compound?
A: The GI50 was > 100 µM (inactive).

Q: What about the GI50 [19] of the same compound?
A: The GI50 was > 100 µM (inactive).

Q: What about the GI50 [20] of the same compound?
A: The GI50 was 99.1 µM (inactive).

Q: What about the GI50 [21] of the same compound?
A: Its GI50 is 15 µM (inactive).

Q: What about the GI50 [22] of the same compound?
A: The GI50 was > 100 µM (inactive).

Q: What about the GI50 [23] of the same compound?
A: Its GI50 is > 100 µM (inactive).

Q: And the GI50 [24]?
A: Its GI50 is > 100 µM (inactive).

Q: What about the GI50 [25] of the same compound?
A: Its GI50 is 29 µM (inactive).

Q: What about the GI50 [26] of the same compound?
A: The GI50 was 7.38 µM (inactive).

Q: What about the GI50 [27] of the same compound?
A: Its GI50 is 57.3 µM (inactive).

Q: And the GI50 [29]?
A: Its GI50 is 14.4 µM (inactive).

Q: What about the GI50 [30] of the same compound?
A: Its GI50 is 5.32 µM (inactive).

Q: What about the GI50 [31] of the same compound?
A: The GI50 was 48.9 µM (inactive).

Q: And the GI50 [32]?
A: Its GI50 is 14.8 µM (inactive).

Q: What about the GI50 [35] of the same compound?
A: Its GI50 is > 100 µM (inactive).

Q: And the GI50 [36]?
A: The GI50 was > 100 µM (inactive).

Q: What about the GI50 [37] of the same compound?
A: Its GI50 is 39.8 µM (inactive).

Q: What about the GI50 [38] of the same compound?
A: Its GI50 is 39.6 µM (inactive).

Q: And the GI50 [39]?
A: The GI50 was > 100 µM (inactive).

Q: What about the GI50 [40] of the same compound?
A: Its GI50 is > 100 µM (inactive).

Q: What about the GI50 [41] of the same compound?
A: The GI50 was > 100 µM (inactive).

Q: And the GI50 [42]?
A: Its GI50 is 33.7 µM (inactive).

Q: What about the GI50 [43] of the same compound?
A: The GI50 was 55.3 µM (inactive).

Q: What about the GI50 [45] of the same compound?
A: Its GI50 is 86.3 µM (inactive).

Q: What about the GI50 [46] of the same compound?
A: The GI50 was 81.5 µM (inactive).

Q: And the GI50 [47]?
A: The GI50 was > 100 µM (inactive).

Q: What about the GI50 [48] of the same compound?
A: The GI50 was 20.6 µM (inactive).

Q: And the GI50 [49]?
A: The GI50 was 22.6 µM (inactive).

Q: And the GI50 [50]?
A: The GI50 was > 100 µM (inactive).

Q: And the GI50 [51]?
A: The GI50 was > 100 µM (inactive).

Q: What about the GI50 [52] of the same compound?
A: Its GI50 is > 100 µM (inactive).

Q: And the GI50 [53]?
A: Its GI50 is > 100 µM (inactive).

Q: And the GI50 [54]?
A: The GI50 was 26.6 µM (inactive).

Q: And the GI50 [55]?
A: Its GI50 is 49.3 µM (inactive).

Q: And the GI50 [56]?
A: Its GI50 is 57.1 µM (inactive).

Q: And the GI50 [57]?
A: The GI50 was 16.9 µM (inactive).
